From patent US6858638B2, “Substituted indazoles, compositions containing them, method of production and use” (Aventis Pharma S.A., priority 2002, dated 2005)

Assays:
Format in all cases: biochemical
[1] = target: T1, human FAK (Homo sapiens, UniProt Q05397); assay: FAK autophosphorylation inhibition, time resolved fluorescence (HTRF) assay; conditions: 10 μM (values without asterisk); read-out: FAK % inhib at 10 μM
T1 construct: The complete cDNA of human FAK; made in house; host or cells: baculovirus expression system (vector pFastBac HTc)
T1 sequence (Q05397 whole entry): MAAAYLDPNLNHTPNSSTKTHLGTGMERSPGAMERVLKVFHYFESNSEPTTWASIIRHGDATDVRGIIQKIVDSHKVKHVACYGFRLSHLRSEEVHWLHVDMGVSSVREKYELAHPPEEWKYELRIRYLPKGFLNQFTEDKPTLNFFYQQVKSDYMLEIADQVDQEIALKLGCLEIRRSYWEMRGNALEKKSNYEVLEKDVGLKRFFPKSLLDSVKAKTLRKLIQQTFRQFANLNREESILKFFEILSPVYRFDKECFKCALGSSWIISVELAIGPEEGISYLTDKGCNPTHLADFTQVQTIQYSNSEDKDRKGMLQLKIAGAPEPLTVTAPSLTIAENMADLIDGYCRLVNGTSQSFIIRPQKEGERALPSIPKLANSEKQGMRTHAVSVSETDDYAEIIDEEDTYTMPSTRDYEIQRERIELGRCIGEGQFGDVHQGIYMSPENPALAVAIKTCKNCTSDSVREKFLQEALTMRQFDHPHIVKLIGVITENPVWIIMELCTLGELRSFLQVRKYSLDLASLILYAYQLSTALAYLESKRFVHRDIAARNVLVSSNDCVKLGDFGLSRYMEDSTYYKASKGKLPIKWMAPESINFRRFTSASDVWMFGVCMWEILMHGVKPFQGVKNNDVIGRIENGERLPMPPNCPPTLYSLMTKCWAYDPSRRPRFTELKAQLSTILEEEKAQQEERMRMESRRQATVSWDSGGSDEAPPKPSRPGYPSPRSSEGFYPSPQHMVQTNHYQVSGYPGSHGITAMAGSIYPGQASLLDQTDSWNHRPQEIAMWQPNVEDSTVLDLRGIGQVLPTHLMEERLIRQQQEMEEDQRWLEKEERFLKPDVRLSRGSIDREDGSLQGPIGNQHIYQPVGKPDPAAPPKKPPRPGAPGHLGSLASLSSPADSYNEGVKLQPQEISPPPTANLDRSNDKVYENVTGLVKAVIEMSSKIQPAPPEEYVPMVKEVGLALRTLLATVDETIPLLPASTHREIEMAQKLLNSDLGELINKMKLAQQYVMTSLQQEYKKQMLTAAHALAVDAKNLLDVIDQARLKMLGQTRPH
In short: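 Autophosphorylation was detected by europium-cryptate anti-pTyr and XL665 anti-His energy transfer, percent inhibition from the 665/620 ratio relative to no-compound wells. Enzyme: His-FAK full length, 6.6 µg/ml, incubated 1 h at 37 °C, pH 7.2, 15 µM ATP.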

[2] = target: T2, Aurora2 kinase (Homo sapiens, UniProt O14965); assay: Aurora2 kinase radioactivity scintillation assay using nickel chelate (NuMA substrate); conditions: 10 μM; read-out: Aurora2 % inhib at 10 μM
T2 construct: A complete recombinant Aurora2 enzyme; His tag (N); made in house; host or cells: E. coli
T2 sequence (O14965 1-403): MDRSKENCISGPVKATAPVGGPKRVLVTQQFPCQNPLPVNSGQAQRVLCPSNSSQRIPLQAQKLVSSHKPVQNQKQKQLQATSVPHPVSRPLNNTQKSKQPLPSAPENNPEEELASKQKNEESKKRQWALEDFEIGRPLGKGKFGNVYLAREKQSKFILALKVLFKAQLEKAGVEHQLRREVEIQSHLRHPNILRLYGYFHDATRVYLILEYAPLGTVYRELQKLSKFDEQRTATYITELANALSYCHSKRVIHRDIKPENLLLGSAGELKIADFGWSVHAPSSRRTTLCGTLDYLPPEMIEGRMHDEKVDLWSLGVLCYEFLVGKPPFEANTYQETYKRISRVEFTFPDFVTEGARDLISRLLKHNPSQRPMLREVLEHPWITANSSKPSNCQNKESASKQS
In short: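 Read-out is 33P incorporation into His-NuMA (Q1687-H2101, 0.5 μM) captured on nickel chelate, after 30 min at 37 °C with 0.02 μM His-Aurora2 and 1 μM ATP. Expressed as percentage inhibition of uncompounded control activity, background subtracted.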

[3] = target: T3, human IGF1R cytoplasmic domain (Homo sapiens, UniProt P08069); assay: IGF1R autophosphorylation inhibition, time resolved fluorescence (HTRF) assay; conditions: 10 μM; read-out: IGF1R % inhib at 10 μM
T3 construct: The human IGF1R cytoplasmic domain was cloned; made in house; host or cells: SF21 insect cells (baculovirus)
T3 sequence (P08069 960-1367 limits assumed): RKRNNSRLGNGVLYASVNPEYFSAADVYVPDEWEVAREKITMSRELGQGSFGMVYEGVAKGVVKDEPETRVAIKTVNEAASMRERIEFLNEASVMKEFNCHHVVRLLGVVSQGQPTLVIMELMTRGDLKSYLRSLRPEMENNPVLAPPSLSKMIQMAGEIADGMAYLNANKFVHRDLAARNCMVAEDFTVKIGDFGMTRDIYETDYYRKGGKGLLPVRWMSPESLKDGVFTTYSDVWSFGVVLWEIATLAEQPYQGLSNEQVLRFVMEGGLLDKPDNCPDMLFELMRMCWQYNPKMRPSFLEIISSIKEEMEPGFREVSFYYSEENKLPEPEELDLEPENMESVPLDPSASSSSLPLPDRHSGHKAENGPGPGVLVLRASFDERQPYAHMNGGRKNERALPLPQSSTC
In short: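 GST-tagged human IGF1R cytoplasmic domain from SF21 cells incubated with compound in 50 mM Hepes pH 7.5, 5 mM MnCl2, 50 mM NaCl, […] ATP. Autophosphorylation detected by HTRF (Eu-K anti-phosphotyrosine, XL665 anti-GST) after EDTA/KF stop; percentage inhibition versus no-compound control.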

[4] = target: T4, human KDR enzyme (Homo sapiens, UniProt P35968); assay: KDR substrate (PLCγ) phosphorylation, scintillation assay; conditions: 10 μM; read-out: KDR % inhib at 10 μM
T4 construct: The cytoplasmic domain of the human KDR enzyme; GST; made in house; host or cells: SF21 insect cells (baculovirus)
T4 sequence (P35968 786-1356 limits assumed): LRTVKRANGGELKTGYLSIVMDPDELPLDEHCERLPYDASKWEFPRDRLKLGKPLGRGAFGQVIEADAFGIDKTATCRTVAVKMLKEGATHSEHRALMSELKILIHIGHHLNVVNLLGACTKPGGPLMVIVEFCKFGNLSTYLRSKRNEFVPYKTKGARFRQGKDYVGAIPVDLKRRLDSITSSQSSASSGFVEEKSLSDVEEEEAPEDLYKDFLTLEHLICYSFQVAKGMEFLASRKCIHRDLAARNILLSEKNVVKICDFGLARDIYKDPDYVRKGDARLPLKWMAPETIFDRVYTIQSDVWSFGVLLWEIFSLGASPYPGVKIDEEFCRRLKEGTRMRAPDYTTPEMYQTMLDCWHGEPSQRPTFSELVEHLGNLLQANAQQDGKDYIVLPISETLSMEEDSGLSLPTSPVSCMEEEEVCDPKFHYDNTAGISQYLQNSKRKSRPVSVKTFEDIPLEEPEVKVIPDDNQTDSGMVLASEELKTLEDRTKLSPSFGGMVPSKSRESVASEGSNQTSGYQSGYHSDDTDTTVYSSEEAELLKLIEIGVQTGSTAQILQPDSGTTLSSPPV
In short: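 Values are percent inhibition relative to the compound-free control, read by scintillation counting of 33P incorporation after EDTA stop. Baculovirus/SF21-expressed GST-KDR cytoplasmic domain (100 ng) acted for 1 h at 37 °C in pH 7.2 MOPS kinase buffer. The substrate was GST-PLCγ SH2-SH3 (2 μg), added with γ33P-ATP and 2 μM unlabeled ATP.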

Row | inhibition at 10 µM [1] | inhibition at 10 µM [2] | inhibition at 10 µM [3] | inhibition at 10 µM [4] | SMILES
1 | -1% | 56% | 0% | 25% | CS(=O)(=O)c1ccccc1S(=O)(=O)Nc1ccc2[nH]nc(-c3cccc(Cl)c3Cl)c2c1 [Example 208, N-[3-(2,3-Dichlorophenyl)-1H-indazol-5-yl]-2-methanesulfonyl-benzenesulfonamide]
2 | 78% | 100% | 67% | 57% | O=S(=O)(Nc1ccc2[nH]nc(-c3ccccc3)c2c1)c1cccc2nonc12 [Example 149, N-(3-Phenyl-1H-indazol-5-yl)-benzo[1,2,5]oxadiazole-4-sulfonamide]
3 | 25% | 50% | 50% | 78% | O=[N+]([O-])c1ccc(S(=O)(=O)Nc2ccc3[nH]nc(-c4ccccc4)c3c2)cc1 [Example 119, 4-Nitro-N-(3-phenyl-1H-indazol-5-yl)benzenesulfonamide]
4 | 46% | 67% | 52% | 49% | CS(=O)(=O)c1ccccc1S(=O)(=O)Nc1ccc2[nH]nc(-c3ccccc3Cl)c2c1 [Example 187, N-[3-(2-Chlorophenyl)-1H-indazol-5-yl]-2-methanesulfonyl-benzenesulfonamide]
5 | 83% | 85% | 96% | 25% | CC(=O)Nc1n[nH]c2ccc(NS(=O)(=O)c3ccccc3S(C)(=O)=O)cc12 [Example 43, N-[5-(2-Methylsulfonylbenzenesulfonylamino)-1H-indazol-3-yl)-acetamide]
6 | 96% | 95% | 74% | 50% | CCOc1ccc(-c2n[nH]c3ccc(NS(=O)(=O)c4ccccc4S(C)(=O)=O)cc23)cc1 [Example 190, N-[3-(4-Ethoxyphenyl)-1H-indazol-5-yl]-2-methanesulfonyl-benzenesulfonamide]
7 | 95% | 99% | 93% | 29% | CS(=O)(=O)c1ccccc1S(=O)(=O)Nc1ccc2[nH]nc(-c3cc4ccccc4o3)c2c1 [Example 180, N-(3-Benzofuran-2-yl-1H-indazol-5-yl)-2-methanesulfonyl-benzenesulfonamide]
8 | 5% | 61% | 50% | 61% | CS(=O)(=O)c1ccc(S(=O)(=O)Nc2ccc3[nH]nc(-c4ccccc4)c3c2)cc1 [Example 155, 4-Methanesulfonyl-N-(3-phenyl-1H-indazol-5-yl)-benzenesulfonamide]
9 | 70% | 31% | 0% | 23% | CS(=O)(=O)c1ccccc1S(=O)(=O)Nc1ccc2[nH]nc(-c3cccc(OCc4ccccc4)c3)c2c1 [Example 223, N-[3-(3-Benzyloxyphenyl)-1H-indazol-5-yl]-2-methanesulfonyl-benzenesulfonamide]
10 | 43% | 73% | 0% | 41% | CC(C)(C)c1ccc(-c2n[nH]c3ccc(NS(=O)(=O)c4ccccc4S(C)(=O)=O)cc23)cc1 [Example 197, N-[3-(4-tert-Butylphenyl)-1H-indazol-5-yl]-2-methanesulfonyl-benzenesulfonamide]
11 | 94% | 94% | 76% | 73% | CS(=O)(=O)c1ccccc1S(=O)(=O)Nc1ccc2[nH]nc(-c3ccc4c(c3)OCO4)c2c1 [Example 196, N-[3-(Benzo[1,3]dioxol-5-yl)-1H-indazol-5-yl]-2-methanesulfonyl-benzenesulfonamide]
12 | 97% | 91% | 82% | 57% | CS(=O)(=O)c1ccccc1S(=O)(=O)Nc1ccc2[nH]nc(-c3cccc([N+](=O)[O-])c3)c2c1 [Example 162, 2-Methanesulfonyl-N-[3-(3-nitrophenyl)-1H-indazol-5-yl]-benzenesulfonamide]
13 | 95% | 92% | 83% | 70% | CS(=O)(=O)c1ccccc1S(=O)(=O)Nc1ccc2[nH]nc(-c3ccc(F)cc3F)c2c1 [Example 217, N-[3-(2,4-Difluorophenyl)-1H-indazol-5-yl]-2-methanesulfonyl-benzenesulfonamide]
14 | 62% | 69% | 41% | 60% | CS(=O)(=O)c1ccccc1S(=O)(=O)Nc1ccc2[nH]nc(-c3ccc(-c4ccccc4)cc3)c2c1 [Example 170, N-(3-Biphenyl-4-yl-1H-indazol-5-yl)-2-methanesulfonyl-benzenesulfonamide]
15 | 94% | 100% | 96% | 97% | CS(=O)(=O)c1ccccc1S(=O)(=O)Nc1ccc2[nH]nc(/C=C/c3ccccc3)c2c1 [Example 78, 2-Methylsulfonyl-N-[3-((E)-styryl)-1H-indazol-5-yl]benzenesulfonamide]
16 | 70% | 65% | 0% | 50% | CS(=O)(=O)c1ccccc1S(=O)(=O)Nc1ccc2[nH]nc(-c3ccc(-c4ccccc4)c(F)c3)c2c1 [Example 210, N-[3-(2-Fluorobiphenyl-4-yl)-1H-indazol-5-yl]-2-methanesulfonyl-benzenesulfonamide]
17 | 92% | 93% | 100% | 60% | CS(=O)(=O)c1ccccc1S(=O)(=O)Nc1ccc2[nH]nc(Nc3ccccc3)c2c1 [Example 83, 2-Methylsulfonyl-N-(3-phenylamino-1H-indazol-5-yl)-benzenesulfonamide]
18 | 92% | 94% | 77% | 58% | C=Cc1ccc(-c2n[nH]c3ccc(NS(=O)(=O)c4ccccc4S(C)(=O)=O)cc23)cc1 [Example 185, 2-Methanesulfonyl-N-[3-(4-vinylphenyl)-1H-indazol-5-yl]-benzenesulfonamide]
19 | 80% | 89% | 77% | 68% | CCSc1ccc(-c2n[nH]c3ccc(NS(=O)(=O)c4ccccc4S(C)(=O)=O)cc23)cc1 [Example 213, N-[3-(4-Ethylsulfanylphenyl)-1H-indazol-5-yl]-2-methanesulfonyl-benzenesulfonamide]
20 | 25% | 59% | 20% | 40% | CS(=O)(=O)c1ccccc1S(=O)(=O)Nc1ccc2[nH]nc(-c3ccc(Oc4ccccc4)cc3)c2c1 [Example 171, 2-Methanesulfonyl-N-[3-(4-phenoxyphenyl)-1H-indazol-5-yl]benzenesulfonamide]
21 | 61% | 40% | 19% | 25% | CSc1ccccc1-c1n[nH]c2ccc(NS(=O)(=O)c3ccccc3S(C)(=O)=O)cc12 [Example 103, 2-methylsulfonyl-N-[3-(2-methylsulfanylphenyl)-1H-indazol-5-yl]benzenesulfonamide]
22 | 97% | 100% | 100% | 97% | COc1ccc2[nH]c(-c3n[nH]c4ccc(NS(=O)(=O)c5ccccc5S(C)(=O)=O)cc34)cc2c1 [Example 58, 2-Methylsulfonyl-N-[3-(5-methoxy-1H-indol-2-yl)-1H-indazol-5-yl]benzenesulfonamide]
